Counter-ions that a name gives are not always drawn.
Target: T1, CRF receptor (Rattus norvegicus, UniProt P35353)
T1 sequence (P35353 24-415): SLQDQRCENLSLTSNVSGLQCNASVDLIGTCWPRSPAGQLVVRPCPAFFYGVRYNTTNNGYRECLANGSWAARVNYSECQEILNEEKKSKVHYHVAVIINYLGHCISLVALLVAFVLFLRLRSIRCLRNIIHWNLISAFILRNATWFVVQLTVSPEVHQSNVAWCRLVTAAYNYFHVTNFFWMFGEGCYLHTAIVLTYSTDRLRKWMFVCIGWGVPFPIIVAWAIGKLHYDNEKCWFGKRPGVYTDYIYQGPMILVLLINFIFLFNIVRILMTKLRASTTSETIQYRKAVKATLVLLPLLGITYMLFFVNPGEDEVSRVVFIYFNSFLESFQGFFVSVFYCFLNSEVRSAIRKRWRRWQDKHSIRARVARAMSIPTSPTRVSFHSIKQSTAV
Test: CRF receptor Binding Assay ([125I]-CRF, rat frontal cortical membranes)
Conditions: 125I-CRF 0.2 nM; rat frontal cortical membranes 0.3 mg-protein/ml; 25° C., 2 hours; nonspecific binding with 1 μM CRF; read-out: IC50 (concentration of the test compound which 50% inhibits the 125I-CRF binding)

Row | Structure (SMILES) | IC50 [µM]
1 | CCN(c1nc(C)cc(N2CC=C(c3ccccc3)CC2)n1)c1ccc(C(C)C)cc1Br [Compound 1-01, 2-[N-(2-bromo-4-isopropylphenyl)-N-ethylamino]-4-(4-phenyl-1,2,3,6-tetrahydropyridin-1-yl)-6-methylpyrimidine hydrochloride] | 0.0661
2 | CCN(c1nc(C)cc(N2CC=C(c3cccc(F)c3)CC2)n1)c1ccc(C(C)C)cc1Br [Compound 1-02] | 0.0221
3 | C#CCN(c1nc(C)cc(N2CC=C(c3cccc(F)c3)CC2)n1)c1ccc(C(C)C)cc1Br [Compound 1-03] | 0.0322
4 | CCN(c1nc(C)cc(N2CC=C(c3cccc(F)c3)CC2)n1)c1ccc(C(C)C)cc1I [Compound 1-05] | 0.0276
5 | CCN(c1nc(C)cc(N2CC=C(c3cccc(F)c3)CC2)n1)c1ccc(C(C)C)cc1SC [Compound 1-06] | 0.0105
6 | C#CCN(c1nc(C)cc(N2CC=C(c3cccc(F)c3)CC2)n1)c1ccc(C(C)C)cc1SC [Compound 1-08] | 0.089
7 | CCN(c1nc(C)cc(N2CC=C(c3cccc(F)c3)CC2)n1)c1ccc(N(C)C)cc1Br [Compound 1-12] | 0.0385
8 | CCN(c1nc(C)cc(N2CC=C(c3cccc(F)c3)CC2)n1)c1c(C)cc(C)cc1C [Compound 1-14] | 0.0739
9 | CCN(c1nc(C)cc(N2CC=C(c3ccc(F)cc3)CC2)n1)c1ccc(C(C)C)cc1Br [Compound 1-15] | 0.0793
10 | CCN(c1nc(C)cc(N2CC=C(c3ccc(F)cc3)CC2)n1)c1ccc(C(C)C)cc1SC [Compound 1-16] | 0.0811
11 | CCN(c1nc(C)cc(N2CC=C(c3ccc(F)cc3)CC2)n1)c1ccc(N(C)C)cc1Br [Compound 1-17] | 0.0739
12 | CCN(c1nc(C)cc(N2CC=C(c3ccc(F)c(F)c3)CC2)n1)c1ccc(C(C)C)cc1Br [Compound 1-20] | 0.0498
13 | CCN(c1nc(C)cc(N2CC=C(c3ccc(F)c(F)c3)CC2)n1)c1ccc(C(C)C)cc1SC [Compound 1-21] | 0.0811
14 | CCN(c1nc(C)cc(N2CC=C(c3ccc(F)c(F)c3)CC2)n1)c1ccc(N(C)C)cc1Br [Compound 1-22] | 0.089
15 | CCN(c1nc(C)cc(N2CC=C(c3cc(F)cc(F)c3)CC2)n1)c1ccc(C(C)C)cc1Br [Compound 1-25] | 0.0464
16 | CCN(c1nc(C)cc(N2CC=C(c3cc(F)cc(F)c3)CC2)n1)c1ccc(C(C)C)cc1SC [Compound 1-26] | 0.0351
17 | C#CCN(c1nc(C)cc(N2CC=C(c3cc(F)cc(F)c3)CC2)n1)c1ccc(C(C)C)cc1SC [Compound 1-27] | 0.0126
18 | CCN(c1nc(C)cc(N2CC=C(c3cccc(Cl)c3)CC2)n1)c1ccc(C(C)C)cc1Br [Compound 1-30, 2-[N-(2-bromo-4-isopropylphenyl)-N-ethylamino]-4-[4-(3-chlorophenyl)-1,2,3,6-tetrahydropyridin-1-yl]-6-methylpyrimidine hydrochloride] | 0.0248
19 | C#CCN(c1nc(C)cc(N2CC=C(c3cccc(Cl)c3)CC2)n1)c1ccc(C(C)C)cc1Br [Compound 1-31] | 0.0962
20 | CCN(c1nc(C)cc(N2CC=C(c3cccc(Cl)c3)CC2)n1)c1ccc(N(C)C)cc1Br [Compound 1-33] | 0.0559
21 | CCN(c1nc(C)cc(N2CC=C(c3cccc(Cl)c3)CC2)n1)c1ccc(C(C)C)cc1SC [Compound 1-34] | 0.0201
22 | C#CCN(c1nc(C)cc(N2CC=C(c3cccc(Cl)c3)CC2)n1)c1ccc(C(C)C)cc1SC [Compound 1-36] | 0.0515
23 | CCN(c1nc(C)cc(N2CC=C(c3ccc(Cl)cc3)CC2)n1)c1ccc(C(C)C)cc1Br [Compound 1-41] | 0.0389
24 | C#CCN(c1nc(C)cc(N2CC=C(c3ccc(Cl)cc3)CC2)n1)c1ccc(C(C)C)cc1Br [Compound 1-46] | 0.0313
25 | CCN(c1nc(C)cc(N2CC=C(c3ccc(Cl)cc3)CC2)n1)c1ccc(C(C)C)cc1SC [Compound 1-51] | 0.0215
26 | CCN(c1nc(C)cc(N2CC=C(c3ccc(Cl)cc3)CC2)n1)c1ccc(C2CCCC2)cc1SC [Compound 1-54] | 0.0658

Row | Structure (SMILES) | IC50 [µM]
27 | CCN(c1nc(C)cc(N2CC=C(c3ccc(Cl)cc3)CC2)n1)c1ccc(N(C)C)cc1Br [Compound 1-55] | 0.0454
28 | CCN(c1nc(C)cc(N2CC=C(c3ccc(Cl)cc3)CC2)n1)c1ccc(Br)cc1Br [Compound 1-57] | 0.0658
29 | CCN(c1nc(C)cc(N2CC=C(c3ccc(Cl)c(Cl)c3)CC2)n1)c1ccc(C(C)C)cc1Br [Compound 1-61] | 0.0673
30 | CCN(c1nc(C)cc(N2CC=C(c3ccc(Cl)c(Cl)c3)CC2)n1)c1ccc(C(C)C)cc1SC [Compound 1-62] | 0.032
31 | CCN(c1nc(C)cc(N2CC=C(c3cccc(C(F)(F)F)c3)CC2)n1)c1ccc(C(C)C)cc1Br [Compound 1-66] | 0.0464
32 | CCN(c1nc(C)cc(N2CC=C(c3cccc(C(F)(F)F)c3)CC2)n1)c1ccc(N(C)C)cc1Br [Compound 1-67] | 0.0614
33 | CCN(c1nc(C)cc(N2CC=C(c3cccc(C(F)(F)F)c3)CC2)n1)c1ccc(C(C)C)cc1SC [Compound 1-68] | 0.0385
34 | CCN(c1nc(C)cc(N2CC=C(c3cccc(C(F)(F)F)c3)CC2)n1)c1c(C)cc(C)cc1C [Compound 1-71] | 0.0559
35 | CCN(c1nc(C)cc(N2CC=C(c3cccc(C)c3)CC2)n1)c1ccc(C(C)C)cc1Br [Compound 1-73] | 0.0658
36 | CCN(c1nc(C)cc(N2CC=C(c3ccc(C)cc3)CC2)n1)c1ccc(C(C)C)cc1Br [Compound 1-74] | 0.0629
37 | CCN(c1nc(C)cc(N2CC=C(c3ccc(OC)cc3)CC2)n1)c1ccc(C(C)C)cc1Br [Compound 1-77] | 0.0824
38 | CCN(c1nc(C)cc(N2CC=C(c3cccs3)CC2)n1)c1ccc(C(C)C)cc1Br [Compound 1-78, 2-[N-(2-bromo-4-isopropylphenyl)-N-ethylamino]-4-[4-(thiophen-2-yl)-1,2,3,6-tetrahydropyridin-1-yl]-6-methylpyrimidine] | 0.0522
39 | CCN(c1nc(C)cc(N2CC=C(c3ccco3)CC2)n1)c1ccc(C(C)C)cc1Br [Compound 1-79, 2-[N-(2-bromo-4-isopropylphenyl)-N-ethylamino]-4-[4-(furan-2-yl)-1,2,3,6-tetrahydropyridin-1-yl]-6-methylpyrimidine] | 0.0445
40 | CCN(c1nc(C)cc(N2CCC=C(c3ccccc3)C2)n1)c1ccc(C(C)C)cc1Br [Compound 2-01, 2-[N-(2-bromo-4-isopropylphenyl)-N-ethylamino]-4-(5-phenyl-1,2,3,6-tetrahydropyridin-1-yl)-6-methylpyrimidine hydrochloride] | 0.089
41 | CCN(c1nc(C)cc(N2CCC=C(c3cccc(F)c3)C2)n1)c1ccc(C(C)C)cc1Br [Compound 2-02] | 0.0962
42 | CCN(c1nc(C)cc(N2CCC=C(c3cccc(F)c3)C2)n1)c1ccc(C(C)C)cc1SC [Compound 2-03] | 0.0823
43 | CCN(c1nc(C)cc(N2CCC=C(c3ccc(F)cc3)C2)n1)c1ccc(C(C)C)cc1Br [Compound 2-04] | 0.0823
44 | CCN(c1nc(C)cc(N2CCC=C(c3ccc(F)cc3)C2)n1)c1ccc(C(C)C)cc1SC [Compound 2-05] | 0.0276
45 | CCN(c1nc(C)cc(N2CCC=C(c3ccc(F)cc3)C2)n1)c1ccc(N(C)C)cc1Br [Compound 2-06] | 0.0962
46 | C#CCN(c1nc(C)cc(N2CCC=C(c3ccc(F)cc3)C2)n1)c1ccc(C(C)C)cc1SC [Compound 2-07] | 0.0202
47 | CCN(c1nc(C)cc(N2CCC=C(c3cccc(Cl)c3)C2)n1)c1ccc(C(C)C)cc1SC [Compound 2-09] | 0.0977
48 | CCN(c1nc(C)cc(N2CCC=C(c3cc(F)cc(F)c3)C2)n1)c1ccc(C(C)C)cc1SC [Compound 2-13] | 0.0823
49 | CCN(c1nc(C)cc(N2CCC=C(c3ccccc3C)C2)n1)c1ccc(C(C)C)cc1SC [Compound 2-15, 2-[N-(4-isopropyl-2-methylthiophenyl)-N-ethylamino]-4-[5-(2-methylphenyl)-1,2,3,6-tetrahydropyridin-1-yl]-6-methylpyrimidine hydrochloride] | 0.0108
50 | CCN(c1nc(C)cc(N2CCC=C(c3cccc(C)c3)C2)n1)c1ccc(C(C)C)cc1SC [Compound 2-18] | 0.0704
51 | CCN(c1nc(C)cc(N2CCC=C(c3ccc(C)cc3)C2)n1)c1ccc(C(C)C)cc1SC [Compound 2-19] | 0.0704
